Experimental data from article PMC6982808, “Design and Biological Evaluation of Colchicine-CD44-Targeted Peptide Conjugate in an In Vitro Model of Crystal Induced Inflammation” (Molecules, 2019).
Ends that are not written are not given here.

Assays:
[1] = tested on: CD44 receptor on THP-1 macrophages; experiment: CD44 surface expression on THP-1 macrophages under conditions of inflammation (flow cytometry); assay type: cell-based, human; settings: 24 h, serum-free medium
Procedure: THP-1 monocytes were cultured in RPMI 1640 medium supplemented with 10% heat-inactivated FBS, 10 mM HEPES, 2 mM glutamine, 100 U/I penicillin, and 100 μg/mL streptomycin and maintained at 37 °C and 5% CO2. THP-1 monocytes were differentiated into THP-1 macrophages using 50 ng/mL phorbol-12-myristate 13-acetate (PMA) for 24 h. Subsequently, adherent cells were washed twice with serum-free medium and rested for another 24 h in PMA-free RPMI + 10% FBS medium. CD44 expression on THP-1 macrophages was conducted using flow cytometry following incubation with the CD44-specific antibody (1:1000 dilution) for 1 h followed by cell pelleting and washing the cell pellet with PBS. THP-1 macrophages were then incubated with DyLight 488 goat anti-mouse IgG at 1:1000 dilution for 30 min. […] THP-1 macrophages were washed with PBS, collected, and CD44 expression was determined using flow cytometry as described above.

[2] = tested on: THP-1 macrophages; experiment: IL-8 secretion by MSU-stimulated THP-1 macrophages (ELISA); assay type: cell-based, human; settings: 1, 10 and 25 μM, 24 h, then MSU 100 μg/mL 6 h; vs MSU alone
Procedure: (§1) THP-1 macrophages (500,000 cells per well) were treated with MSU crystals (100 μg/mL) for 2, 4, and 6 h. ROS staining solution (1:1000 ratio) was added to the wells and incubated for 1 h. Subsequently, cells were collected, washed, and cell-associated fluorescence was determined using flow cytometry. Media were collected at 2, 4, and 6 h, and IL-8 media concentrations were determined by ELISA. […] Subsequently, cells were treated with MSU crystals (100 μg/mL) for 6 h. ROS generation and IL-8 concentrations were determined as described above.

[3] = tested on: THP-1 macrophages; experiment: ROS generation in MSU-stimulated THP-1 macrophages (flow cytometry); assay type: cell-based, human; settings: 10 and 25 μM, 24 h, then MSU 100 μg/mL 6 h; vs MSU alone
Procedure: as §1

[4] = tested on: THP-1 macrophages; experiment: MSU crystal phagocytosis by THP-1 macrophages (flow cytometry side-scatter, % cells in P2 region); assay type: cell-based, human
Procedure: THP-1 macrophages (500,000 cells per well) were treated with MSU crystals (100 μg/mL) ± HA (100 μg/mL) for 4 h. Subsequently, macrophages were collected, pelleted, and washed with PBS. MSU phagocytosis was determined by analyzing the change in cell side-scatter using a flow cytometer. Two regions of interest were identified: the P1 region representing the THP-1 macrophage population in the absence of MSU crystal exposure and the P2 region with increased cell side scatter indicative of MSU phagocytosis. Data are presented as the percentage of cells in the P2 region across different experimental groups.
Subsequently, cells were treated with MSU crystals (100 μg/mL) for 4 h. MSU phagocytosis by THP-1 macrophages was determined using flow cytometry as described above.

[5] = tested on: THP-1 macrophages; experiment: Cytotoxicity against THP-1 macrophages (Cell Counting Kit-8); settings: 24 h, CCK-8; for cytotoxic effect against THP-1 macrophages (in words): 1, 10 and 25 μM, three independent experiments
Procedure: Subsequently, 10 μL of CCK-8 solution was added to each well and absorbance was measured 90 min later at 450 nm. Cytotoxicity was expressed as the percentage of viable cells following treatments.

[6] = in vitro; settings: human, cerebrospinal or other body fluid
Procedure: Using seven microcentrifuge tubes, a total of 50 μL of normal SF was diluted with 150 μL of PBS in each tube. Following equilibrating diluted SF to 37 ± 1 °C for 15 min, 50 μL of peptide stock solution (1 mM solution in 100% sterile water) was added to each tube. Next, at different time intervals (0, 1, 2, 3, 4, 6, and 24 h), an aliquot of the reaction solution (100 μL) was sampled. Cold methanol (200 μL) was added to each aliquot in order to precipitate proteins that were present in the SF. This was followed by cooling the solution to 4 °C for 15 min followed by centrifugation at 500 g for 15 min to precipitate SF proteins. To determine the proteolytic stability of the P6 peptide, the supernatant was injected into an analytical RP-HPLC C18 column. In order to measure the concentration of the P6 peptide isolated from SF, the area under the curve (AUC) of the P6 peptide at each time point was estimated using an average of four runs, and normalized to AUC values at time 0 and expressed as the percentage of AUC at time 0.

[7] = target: T1, recombinant human CD44 receptor (Homo sapiens, UniProt P16070); experiment: ELISA binding of coated P6 peptide or HA to CD44-IgG Fc fusion protein; settings: for binding to the CD44 receptor (ELISA absorbance at 450 nm): wells coated 1 ng/mL to 1 μg/mL, CD44-IgG Fc 0.1 µg/mL, 1 h room temperature, three independent experiments
T1 construct: purchased R&D Systems
T1 sequence (P16070 with tags, fused parts or gaps limits assumed): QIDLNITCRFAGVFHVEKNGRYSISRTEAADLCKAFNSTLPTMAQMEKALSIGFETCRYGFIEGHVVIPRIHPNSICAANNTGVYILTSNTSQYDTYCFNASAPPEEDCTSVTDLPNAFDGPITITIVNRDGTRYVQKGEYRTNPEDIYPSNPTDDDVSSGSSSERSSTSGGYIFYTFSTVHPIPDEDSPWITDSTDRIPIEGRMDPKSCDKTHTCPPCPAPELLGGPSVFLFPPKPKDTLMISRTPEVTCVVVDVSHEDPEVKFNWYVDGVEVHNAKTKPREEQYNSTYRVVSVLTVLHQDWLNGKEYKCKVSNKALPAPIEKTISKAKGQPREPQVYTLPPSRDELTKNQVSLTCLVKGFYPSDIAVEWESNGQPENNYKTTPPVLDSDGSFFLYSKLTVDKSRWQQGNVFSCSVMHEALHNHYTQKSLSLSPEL
Procedure: Wells of high-binding microtiter plates were coated with either the P6 peptide or high molecular weight HA (molecular weight >1 million Da) in serial concentrations between 1 ng/mL and 1 μg/mL overnight in phosphate buffered saline (PBS) (100 µL per well) at 4 °C. […] CD44-IgG Fc fusion protein (R&D Systems) (0.1 µg/mL) in PBS + 0.05% Tween 20 (100 µL per well) was added to both coated and uncoated wells and incubated for 1 h at room temperature. Following washing with PBS + 0.1% Tween 20, anti-human IgG Fc-HRP (1:1000) was added and incubated at room temperature for 1 h, followed by washing three times with PBS + 0.05% Tween 20. Turbo TMB-ELISA substrate solution was added (100 µL per well), and absorbance intensity was determined at 450 nm. Absorbance values in the […] to adjust for any non-specific binding by CD44-IgFc.

With `O=c1[nH]c(=O)c2[nH]c(=O)[nH]c2[nH]1` [UA, uric acid] the “enhancement in cell surface CD44 protein staining compared to untreated control macrophages” value ([1]; UA 10 mg/dL) was “approximately 3 fold”.

With `COc1cc2c(c(OC)c1OC)-c1ccc(OC)c(=O)cc1[C@@H](NC(C)=O)CC2` [colchicine] the IL-8 secretion [2] was “reduced”, the ROS generation [3] was “reduced” and the “MSU phagocytosis by THP-1 macrophages” value ([4]; 1, 10 and 25 μM, 24 h pre-treatment, then MSU 100 μg/mL 4 h, vs MSU alone) was “reduced MSU phagocytosis”. The “reduction of macrophage cell viability” value ([5]; 1 μM) was “approximately 50%”, the “reduction of macrophage cell viability” value ([5]; 25 μM) was “approximately 80%” and the “cytotoxic effect against THP-1 macrophages (in words)” value [5] was “dose-dependent cytotoxic effect”.

In the case of “IL-1β: recombinant human IL-1β, proinflammatory cytokine”, the “enhancement in cell surface CD44 protein staining compared to untreated control macrophages” value ([1]; IL-1β 10 ng/mL) is reported as “approximately two-fold”.

In the case of WYKGDKFLYLQNGIEAIADF-NH2 [P6 peptide], the IL-8 secretion [2] is reported as “reduced”, the ROS generation [3] is reported as “reduced” and the “MSU phagocytosis by THP-1 macrophages” value ([4]; 10 and 25 μM, 24 h pre-treatment, then MSU 100 μg/mL 4 h, vs MSU alone) is reported as “significantly reduced MSU phagocytosis”. The half-life at 200 μM [6] was about 4 h, the “cytotoxic effect against THP-1 macrophages (in words)” value [5] was “no cytotoxic effect” and the “difference between P6 peptide and HA binding to CD44” value ([7]; across all coating concentrations 1 ng/mL to 1 μg/mL) was “no significant difference”. The “binding to the CD44 receptor (ELISA absorbance at 450 nm)” value [7] was “concentration-dependent binding”.

In the case of hyaluronic acid [HA], the “MSU phagocytosis by THP-1 macrophages” value ([4]; 100 μg/mL co-treatment with MSU 100 μg/mL for 4 h) is reported as “significantly reduced MSU phagocytosis” and the “binding to the CD44 receptor (ELISA absorbance at 450 nm)” value [7] is reported as “concentration-dependent binding”.
